Experimental data reported in patent publication US8338641B2, “Method for treating atypical facial pain” (UCB Pharma GmbH, priority 2004, dated 2012).
Entries after “also recorded” stand apart in the source; their conditions may differ.

Assays:
[1] = test system: rats with infraorbital nerve injury; experiment: Mechanical sensitivity (von Frey filaments) after photochemically-induced ischemic infraorbital nerve (IoN) injury, model of trigeminal neuropathic pain; type: in vivo, rat; conditions: for effect on mechanical hypersensitivity (response threshold to von Frey stimulation): 14-16 days after IoN injury
Experimental: (§1) Male and female Sprague-Dawley rats (Möllegård, Denmark) weighing 200-250 g at the start of the experiments were used. All experimental procedures were approved by the local research ethics committee.
Rats were anesthetized with chloral hydrate. The left IoN was exposed via a longitudinal incision at the maxillary region and all branches of the nerve were carefully lifted on a glass hook. A piece of aluminium foil was placed under the nerve and the nerve was irradiated for 6 min with the tunable argon ion laser. The rat was positioned so that the laser beam was perpendicular and transversal to the exposed nerve. Immediately before irradiation erythrosin B was injected i.v. and the injection was repeated after 5 min. After irradiation the wound was closed in layers.
Mechanical sensitivity was tested with a series of von Frey filaments. The rat was gently held by the experimenter and the von Frey filaments were applied in ascending order to the IoN territory on the hairy skin of the vibrissal pad. The stimulation with each filament consisted of four consecutive applications at 1/s on the injured and then on the contralateral side. […] The rats were habituated to the testing procedure for several days before nerve injury and baseline response was determined in two sessions. Testing was carried out 3, 7, 10 and 14 d after the injury to assess the development of mechanical hypersensitivity. The effect of SPM 927 (7.5, 15, and 30 mg/kg) was tested 14-16 days after injury when mechanical hypersensitivity was well established. Measurements were taken 30 min, 1 h, 2 h, and 3 h following drug injection.
(§2) SPM 927 was dissolved in physiological saline and injected intraperitoneally. The data are expressed as median±M.A.D. and analysed with Wilcoxon signed-ranks test.

[2] = test system: rats with infraorbital nerve injury; experiment: Motor deficits observed in rats with IoN injury after drug injection; type: in vivo, rat; conditions: i.p., doses 7.5-30 mg/kg
Experimental: as §1, §2

COC[C@@H](NC(C)=O)C(=O)NCc1ccccc1 [SPM 927, (R)-2-acetamide-N-benzyl-3-methoxypropionamide]
effect on mechanical hypersensitivity (response threshold to von Frey stimulation) ([1]; female rats, 7.5 mg/kg i.p.): no effect
effect on mechanical hypersensitivity (response threshold to von Frey stimulation) ([1]; female rats, 15 mg/kg i.p.): significantly and markedly alleviated mechanical hypersensitivity
effect on mechanical hypersensitivity (response threshold to von Frey stimulation) ([1]; female rats, 20 mg/kg i.p.): significantly and markedly alleviated mechanical hypersensitivity
effect on mechanical hypersensitivity (response threshold to von Frey stimulation) ([1]; male rats, 15 mg/kg i.p.): did not alleviate mechanical hypersensitivity
effect on mechanical hypersensitivity (response threshold to von Frey stimulation) ([1]; male rats, 20 mg/kg i.p.): did not alleviate mechanical hypersensitivity
effect on mechanical hypersensitivity (response threshold to von Frey stimulation) ([1]; male rats, 30 mg/kg i.p.): significantly alleviated mechanical hypersensitivity for 3 h
overall analgesic or/and anti-allodynic effect in rat model of trigeminal neuropathic pain ([1]; systemic, single dose administration): dose-dependent analgesic or/and anti-allodynic effect; also recorded: significant efficacy in reducing mechanical hypersensitivity
motor deficits [2]: did not cause motor deficits
